What follows are compounds tested on Nrf2 (assay: Nrf2 antagonism assay: ARE luciferase reporter in KYSE-70 cells). Conditions: Homo sapiens, KYSE-70, KYSE-70 cells, positive Imax corresponds to Nrf2 antagonism, read-out: KYSE70 Cellular ARE Luciferase Imax (%).
Assay type: cell-based
From the text: NRF2 binds to a promoter region, antioxidant response element (ARE), to initiate expression of multiple genes. ARE luciferase reporter assays are used to test whether a ligand can activate or repress the expression of target genes using luciferase as a reporter gene.
KYSE-70 is an esophageal squamous cell carcinoma cell line with a Nrf2 mutation at amino acid position W24C. This mutation lowers the affinity between the E3 ligase that includes KEAP1 and Nrf2, resulting in a state in which the synthesis rate of new Nrf2 is faster than the E3's degradation rate of Nrf2, resulting in a “Nrf2 high” state. In KYSE-70 cells, genes are inserted directly after the ARE that trigger the expression of luciferase. Without a NRF2 antagonist in this modified KYSE70 cell line which has an inherently “NRF2 high state”, luciferase is expressed, and a signal is observed.
Nrf2 antagonists bind at C151 of KEAP1 and stabilize the E3 which results in an increased degradation rate of Nrf2. Increased degradation of Nrf2 results in less expression of luciferase, and therefore a less intense signal.
An IC50 is generated from the dose-response curve and an Imax. A positive Imax corresponds to Nrf2 antagonism. Imax >90% correlates with in vivo tumor grown inhibition. Compounds with Imax >50% were included in this description.
Compound `C=CC(=O)N1CCN(C(=O)CC#N)C[C@H]1c1cc(Cl)cc(-c2ccnc(NC(=O)CC#N)n2)c1` (single isomer, unassigned) [Compound 189] has an Emax of 79%. `C=CC(=O)N1CC2(CC2)OCC1(C)c1cc(Cl)cc(-c2ncnc(N)n2)c1` (single isomer, unassigned) [Compound 160, 1-(6-(3-(4-amino-1,3,5-triazin-2-yl)-5-chlorophenyl)-6-methyl-4-oxa-7-azaspiro[2.5]octan-7-yl)prop-2-en-1-one] showed an Emax of 91%. Work on `C=CC(=O)N1CCOCC1c1cc(Cl)nc(-c2ccn(C)c(=O)c2)c1` (single isomer, unassigned) [Compound 25, 4-(4-acryloylmorpholin-3-yl)-6-chloro-1′-methyl-[2,4′-bipyridin]-2′(1′H)-one] yielded an Emax of 86%. Compound `C=CC(=O)N1[C@H](c2cc(Cl)nc(-c3cc(C)ncn3)c2)COC[C@H]1C(F)F` [Compound 201, 1-((3R,5S)-3-(2-chloro-6-(6-methylpyrimidin-4-yl)pyridin-4-y1)-5-(difluoromethyl)morpholino)prop-2-en-1-one] has an Emax of 93%. For `Nc1ncnc(-c2cc(Cl)cc([C@@H]3COCCN3C(=O)C=C3CC3)c2)n1` (single isomer, unassigned) [Compound 293], the Emax was 54%. Compound `C=CC(=O)N1CCOCC1c1cc(Cl)cc(-c2cnnc(OC)c2)c1` (single isomer, unassigned) [Compound 56, 1-(3-(3-chloro-5-(6-methoxypyridazin-4-yl)phenyl)morpholino)prop-2-en-1-one] has an Emax of 74%. For `C=CC(=O)N1CCOCC1c1cc(Cl)cc(-c2cncc(C)n2)c1` (single isomer, unassigned) [Compound 59, 1-(3-(3-chloro-5-(6-methylpyrazin-2-yl)phenyl)morpholino)prop-2-en-1-one], the Emax was 81%. With `C=CC(=O)N1CCOC[C@H]1c1cc(Cl)cc(-c2cnn(C3CC3)c2)c1` (single isomer, unassigned) [Compound 115] the Emax was 74%. Work on `C=CC(=O)N1CC(C)(C)OCC1c1cc(Cl)nc(-c2ccnc(N)n2)c1` (single isomer, unassigned) [Compound 99, 1-(5-(2-(2-aminopyrimidin-4-yl)-6-chloropyridin-4-y1)-2,2-dimethylmorpholino)prop-2-en-1-one] yielded an Emax of 82%. With `C=CC(=O)N1CCOCC1c1cc(Cl)cc(-c2ccnc(C(N)=O)c2)c1` (single isomer, unassigned) [Compound 75, 4-(3-(4-acryloylmorpholin-3-y1)-5-chlorophenyl)picolinamide] the Emax was 92%. For `C=CC(=O)N1CCN(C(C)=O)C[C@H]1c1cc(Cl)cc(-c2nnn(C)n2)c1` (single isomer, unassigned) [Compound 22], the Emax was 64%. In the case of `C=CC(=O)N1[C@H](C)COC[C@H]1c1cc(Cl)cc(-c2ccnc(C)n2)c1` (single isomer, unassigned) [Compound 109], the Emax is reported as 91%. Work on `C=CC(=O)N1[C@H](C)COC[C@H]1c1cc(Cl)cc(-c2ccc(F)c(C(N)=O)c2)c1` (single isomer, unassigned) [Compound 108] yielded an Emax of 70%. Work on `C=CC(=O)N1CCOC[C@H]1c1cc(Cl)cc(-c2cn[nH]c2)c1` (single isomer, unassigned) [Compound 117] yielded an Emax of 84%. `C=CC(=O)N1[C@H](c2cc(Cl)nc(-c3cc(N)ncn3)c2)COC[C@H]1C(F)F` (single isomer, unassigned) [Compound 202] showed an Emax of 94%. `C=CC(=O)N1CCOCC1c1cc(Cl)nc(-c2ncnc(N)n2)c1` (single isomer, unassigned) [Compound 146, 1-(3-(2-(4-amino-1,3,5-triazin-2-yl)-6-chloropyridin-4-yl)morpholino)prop-2-en-1-one] showed an Emax of 71%. In the case of `C=CC(=O)N1CCOC[C@H]1c1cc(Cl)cc(-c2ncnc(NCCO)n2)c1` (single isomer, unassigned) [Compound 219], the Emax is reported as 81%. Compound `C=CC(=O)N1CC2(CC2)OCC1c1cc(Cl)cc(-c2ncnc(N)n2)c1` (single isomer, unassigned) [Compound 153, 1-(6-(3-(4-amino-1,3,5-triazin-2-y1)-5-chlorophenyl)-4-oxa-7-azaspiro[2.5]octan-7-yl)prop-2-en-1-one] has an Emax of 94%. Work on `C=CC(=O)N1CCOCC1(C)c1cc(Cl)cc(-c2ccnc(N)n2)c1` (single isomer, unassigned) [Compound 113, 1-(3-(3-(2-aminopyrimidin-4-yl)-5-chlorophenyl)-3-methylmorpholino)prop-2-en-1-one] yielded an Emax of 94%. `C=CC(=O)N1CCN(C(=O)C2CC2)C[C@H]1c1cc(Cl)cc(-c2ccc(F)c(C(N)=O)c2)c1` (single isomer, unassigned) [Compound 195] was tested, and the Emax was 90%. Work on `C=CC(=O)N1[C@H](C)COC[C@H]1c1cc(Cl)cc(-c2ccn(C)c(=O)c2)c1` (single isomer, unassigned) [Compound 24] yielded an Emax of 73%. With `C=C(F)C(=O)N1CCOC[C@H]1c1cc(Cl)cc(-c2ncnc(N)n2)c1` (single isomer, unassigned) [Compound 297] the Emax was 58%. `C=CC(=O)N1CCOCC12COc1c(-c3ncnc(N)n3)cc(Cl)cc12` (single isomer, unassigned) [Compound 151, 1-(7-(4-amino-1,3,5-triazin-2-yl)-5-chloro-2H-spiro[benzofuran-33′-morpholino]-4′-yl)prop-2-en-1-one] showed an Emax of 81%. In the case of `C=CC(=O)N1CCN(C(=O)C2CC2)C[C@H]1c1cc(Cl)cc(-c2nccc(N)n2)c1` (single isomer, unassigned) [Compound 196], the Emax is reported as 90%. `C=CC(=O)N1[C@H](c2cc(Cl)nc(-c3ccn4ccnc4c3)c2)COC[C@H]1C(F)F` (single isomer, unassigned) [Compound 194] was tested, and the Emax was 84%. Compound `C=CC(=O)N1CCOC[C@H]1c1cc(Cl)cc(-c2c[nH]c(=O)[nH]2)c1` (single isomer, unassigned) [Compound 184] has an Emax of 72%. `C=CC(=O)N1[C@H](C(N)=O)COC[C@H]1c1cc(Cl)nc(-c2ccc(F)c(C(N)=O)c2)c1` (single isomer, unassigned) [Compound 181] was tested, and the Emax was 66%. In the case of `C=CC(=O)N1C[C@@H](F)COC[C@H]1c1cc(Cl)nc(-c2cc(N)ncn2)c1` [Compound 198, 1-((3R,6R)-3-(2-(6-aminopyrimidin-4-yl)-6-chloropyridin-4-yl)-6-fluoro-1,4-oxazepan-4-yl)prop-2-en-1-one], the Emax is reported as 93%. Work on `C=CC(=O)N1CCN(S(C)(=O)=O)C[C@H]1c1cc(Cl)cc(-c2nnn(C)n2)c1` (single isomer, unassigned) [Compound 21] yielded an Emax of 54%. For `C=CC(=O)N1CCN(C(=O)C2CC2)C[C@H]1c1cc(Cl)cc(-c2ccnc(N)n2)c1` (single isomer, unassigned) [Compound 185], the Emax was 94%. `C=CC(=O)N1CCOCC1(C)c1cc(Cl)cc(-c2ncnc(N)n2)c1` (single isomer, unassigned) [Compound 112, 1-(3-(3-(4-amino-1,3,5-triazin-2-yl)-5-chlorophenyl)-3-methylmorpholino)prop-2-en-1-one] was tested, and the Emax was 95%. With `C=CC(=O)N1CCOC[C@H]1c1cc(Cl)cc(-c2nc(N)nc(Cl)n2)c1` (single isomer, unassigned) [Compound 199] the Emax was 92%. With `C=CC(=O)N1CCOCCC1c1cc(Cl)cc(-c2ncnc(N)n2)c1` (racemic) [Compound 152, 1-(5-(3-(4-amino-1,3,5-triazin-2-yl)-5-chlorophenyl)-1,4-oxazepan-4-yl)prop-2-en-1-one] the Emax was 78%. `[2H]c1nc(N)nc(-c2cc(Cl)cc([C@@H]3COCCN3C(=O)C=C)c2)n1` (single isomer, unassigned) [Compound 208] was tested, and the Emax was 94%. `C=CC(=O)N1[C@H](C)COC[C@H]1c1cc(Cl)nc(-c2ccnc(C)n2)c1` (single isomer, unassigned) [Compound 142] gave an Emax of 81%. For `C=CC(=O)N1CCOC[C@H]1c1cc(Cl)cc(-c2cnn(C)c2)c1` (single isomer, unassigned) [Compound 116], the Emax was 84%. For `C=CC(=O)N1CCOCC1c1cc(Cl)cc(-c2ccn3cc(C)nc3c2)c1` (single isomer, unassigned) [Compound 57, 1-(3-(3-chloro-5-(2-methylimidazo[1,2-a]pyridin-7-yl)phenyl)morpholino)prop-2-en-1-one], the Emax was 84%. For `C=CC(=O)N1CCOCC1c1cc(Cl)nc(-c2nnn(C)n2)c1` (single isomer, unassigned) [Compound 23, 1-(3-(2-chloro-6-(2-methyl-2H-tetrazol-5-yl)pyridin-4-yl)morpholino)prop-2-en-1-one], the Emax was 55%. With `C=CC(=O)N1CCOCC1c1cc(Cl)cc(-c2nccc3[nH]ccc23)c1` (single isomer, unassigned) [Compound 111, 1-(3-(3-chloro-5-(1H-pyrrolo[3,2-c]pyridin-4-yl)phenyl)morpholino)prop-2-en-1-one] the Emax was 90%. For `C=CC(=O)N1[C@H](C)COC[C@H]1c1cc(Cl)cc(-c2ccnc(N)n2)c1` (single isomer, unassigned) [Compound 110], the Emax was 93%. `C=CC(=O)N1CCOCC1c1cc(Cl)nc(-c2cc(N)ncn2)c1` (single isomer, unassigned) [Compound 119, 1-(3-(2-(6-aminopyrimidin-4-yl)-6-chloropyridin-4-yl)morpholino)prop-2-en-1-one] gave an Emax of 96%. Compound `C=CC(=O)N1CCOCC1(C)c1cc(Cl)cc(-c2ccc(F)c(C(N)=O)c2)c1` (single isomer, unassigned) [Compound 114, 3′-(4-acryloyl-3-methylmorpholin-3-yl)-5′-chloro-4-fluoro-[1,1′-biphenyl]-3-carboxamide] has an Emax of 87%.

Reference: US20260207621A1 (Vividion Therapeutics, Inc., priority 2022, published 2026)
